Series [1] has as its system Derlin-1 mRNA. Nature of the series: Derlin-1 mRNA knockdown by siRNA in monocyte-derived dendritic cells (qPCR, ΔΔCt). Type of series: cell-based, human. The following applies: MODC. As for the experimental part: (§1) Table 1: Summary of Derlin-1 Knockdowns with Various siRNAs. Cells transfected in 12 well plate at 60%-80% confluency. one ul Viromer blue was used per 1 ml final volume. Cells were lysed via centrifugation and resuspended in TRI reagent at time points of either 6 h, 24 h, and 48 h. Lysates were split for both protein verification and qPCR. Knockdowns are estimated using the ΔΔCt method. […] Anti-Derlin-1 siRNA was designed using MITs website (sirna.wi.mit.edu) and siRNA design software (dharmacon.horizondiscovery.com/rnai/sirna). SiRNA were chosen based on the criteria that they would bind no more than 15 nucleotides on off-target mRNA and that they would be capable of knockdown for all four of the Derlin-1 mRNA isoforms. Additionally, siRNAs with 40-60% GC content, no more than 3 identical nucleotides in a row, and 3′ UU overhangs were used. The first siRNA (SEQ ID NO: 65, 5′-[…]-3′) was purchased from TriLink Biotechnologies and the second (SEQ ID NO: 66, 5′-[…]-3′) was purchased from Horizon Discovery. A third, modified siRNA with sequence 5′-SEQ ID NO: 67, O′me/G/O′me/[…]-3′ and DNA bases on the 1st and 8th nucleotide of the antisense strand was also designed and purchased from Horizontal Discovery. Scramble siRNAs were purchased from Horizontal Discovery (D-001810-10-05, ON-TARGET plus Non-targeting Pool).
Derlin-1 forms an integral part of the […] machinery required for transporting classical MHCI, e.g., HLA-A, -B, -C for proteasome degradation. […] In contrast, the protein band of Derlin-1 is entirely missing in Derlin-1 siRNA-treated MoDCs. Transfection of the primary cells were performed using PEI reagents (Viromer Blue vs. Viromer Red). The embodiment of the invention is three-fold. One aspect of the embodiment resides in treating APC with Derlin-1 RNA interference to prevent the generation of endogenous leader peptide as well as to cause dissociation of the HLA-E bound endogenous leader peptides so that Derlin-1-treated APC can be fully loaded with the HLA-E vaccines in the presence of the second costimulatory signal for immune induction.
Background: Quantitative PCR measures a nucleic acid by following its amplification.

Series [2] deals with Derlin-1 mRNA. Briefly: Derlin-1 mRNA knockdown by siRNA in T2 cells (qPCR, ΔΔCt). Type of series: cell-based, human. As for the experimental part:
as §1, with “Pool). […]” for “Pool).”

Series [3] relates to HLA-E. Briefly: Surface HLA-E expression in PBMCs (FACS). The series is classed as cell-based, human. Particulars: anti-CD3 coated plate, 4 days. As for the experimental part:
(§2) FIG. 6. Modulation of surface HLA-G and HLA-E expression in PBMCs in present of interferon-β. Fresh buffy coat was obtained from San Diego blood blank. PBMCs (peripheral blood mononuclear cells) were isolated by density gradient centrifugation with Histopague-1077 (Sigma). 5×10^5 of PBMCs were seeded in anti-CD3 (10 μg/ml) coated 96 wells-plate and treated with interferon-I3 for 4 days. Cells were collected and stained with fluorescence-conjugated antibody; Alexa Fluor 488-conjugated anti-human CD8a (Biolegend), Pacific Blue-conjugated human CD4, APC-Cy7-conjugated human CD19 and PE conjugated-HLA-E or PE-Cy 7 conjugated HLA-G (Panel A) or HLA-E (Panel B), followed by fixation with 2% paraformaldehyde. Phenotype and HLA-E or HLA-G (Biolegend) expression were performed by using a FACS, LRSII flow cytometry and the data were processed as describe above.

A further series has as its system HLA-G. Briefly: Surface HLA-G expression in PBMCs (FACS). The series is classed as cell-based, human. The following applies: anti-CD3 coated plate, 4 days. As for the experimental part: as §2
Series [4] concerns HLA-E. Nature of the series: Surface HLA-E expression in immature MoDC cells (FACS). Particulars: 100 nM SR11237, 100 nM Bexarotene or Interferon-β 1,000 U, 4 days. Type of series: cell-based, human. As for the experimental part: FIG. 5. […] MoDCs were then collected and stained with fluorescence-conjugated antibody; APC-conjugated anti-CD83 (Biolegend) and PE-conjugated HLA-E (Biolegend) followed by fixation with 2% paraformaldehyde. Phenotype and HLA-E expression of MoDCs were performed by using a FACS, LRSII flow cytometry and the data were processed by using the Flowjo software.

In series [5] the test system is HLA-E. Nature of the series: ELISA of renatured HLA-E binding to biotinylated leader peptide (C3N). The arrangement: species or system human. As for the experimental part:
FIG. 2. […] ELISA for the interaction of denatured HLA-E or covalent HLA-E-β2 microglobulin fusion protein with biotinylated HLA-A2 leader peptide. 10 μg of denatured recombinant HLAE-β2 microglobulin fusion protein, or denatured HLA-E incubated with biotinylated A2 leader peptide (SEQ ID NO: 50, […]) with or without 10 μg β2 microglobulin in 50 μl buffer A (0.5 mM-Tris pH at 6.6) at 18° C. for two days. The complexes were then added into anti-HLA E antibody coated plate (2 μg/ml) and incubated for 1 hour. After washing three times with 1% BSA PBS, HRP-Avidin (Biolegend #405103, 1:1000) was used to detect bound biotinylated leader peptide.
A conformation capture of canonical/non-canonical peptide (C3N) method to HLA-E is designed to test predicted HLA-E binding peptides. HLA-E canonical and nominal peptides predicted from the python algorithm of Igepredict program and any 9 to 12-mer made collinearly with an overlapping IgE sequence can be tested by a binding assay. […] The assay for intact re-natured conformation of HLA-E is dependent on gaining the binding signal using anti-HLA-E coated plate to capture re-natured HLA-E in the presence of beta 2 microglobulin and leader peptides.
(ELISA stands for enzyme-linked immunosorbent assay.)

The test system of series [6] is HLA-E. Briefly: Upregulation of surface HLA-E by peptide nonamers in TAP-deficient T2 cells (FACS). The series is classed as cell-based, human. Particulars: overnight incubation with peptide. As for the experimental part:
FIG. 3. Upregulation of surface HLA-E by peptide nonamers. Screening 9-mers of IgE epitope that were able to induce surface HLA-E expression in tap deficient T2 cells. T2 cells were cultured overnight in present of Panel A: A2 leader peptide-SEQ ID NO: 51, […]) or IgE epitope, B5 (SEQ ID NO: 52, […]), B6 (SEQ ID NO: 53, […]), B8 (SEQ ID NO: 54, […]) and B9 (SEQ ID NO: 55, […]), SP4 (SEQ ID NO: 56, […]), SP7 (SEQ ID NO: 57, […]) and SP11 (SEQ ID NO: 58, […]), and Panel B: IgE epitope of Mixture1 (SEQ ID NO: 59, […], […], […], […] and […]), Mixture2 (SEQ ID NO: 60: […], […], […], […] and […]), and Mixture 3 (SEQ ID NO: 61, […], SGYTPGTIN, […], […] and TINITWLED) at the concentration of 100 μg/ml. Cells were then collected and stained with PE conjugated HLA E followed by FACS flow cytometry analysis.
FIG. 12. Screening of IgE epitope 9-mer which can induce surface HLA-E expression in TAP-deficient T2 cells. Peptide E33 ([…], SEQ ID NO: 68) was predicted by Ige Predict program. T2 cells (2.5×10^5 cells/well) were cultured in the presence of E33 peptide or HLA-A2 leader peptide (10 μg/mL) in 96-well cell culture plate for overnight. Cell were collected and stained with PE anti-human HLA-E antibody followed by flow cytometric analysis (Panel A). […]

Several values for one entry are separate records, joined by “and”; a condition that tells them apart may be missing. Equal values may be shown once. Ends that are not written are not given here.

Experimental findings from patent publication US11464840B2, “Universal non-classical MHC I vaccines: HLA-E-restricted antigenic peptides as universal vaccines to treat allergy, inflammation, autoimmune and infectious diseases, and cancers” (priority 2019, dated 2022) are described below.

As for “5′-GAGGCCAGCAGACUAUUUAUU-3′ [Derlin siRNA #1]”, the “Derlin-1 mRNA knockdown (KD)” value came to 36% with Derlin-1 mRNA [1] (25 nM siRNA, Day 1); 30% with Derlin-1 mRNA [1] (50 nM siRNA, Day 1); 32% with Derlin-1 mRNA [2] (T2, 5 nM siRNA, Day 1); 19% in the series with Derlin-1 mRNA [2] (T2, 5 nM siRNA, Day 2); 50% with Derlin-1 mRNA [2] (T2, 10 nM siRNA, Day 1); 10% with Derlin-1 mRNA [2] (T2, 10 nM siRNA, Day 2). Besides, the “Derlin-1 mRNA knockdown (KD)” value in the series on Derlin-1 mRNA [2] (T2, 20 nM siRNA, Day 1) turned out to be 25%; in the series on Derlin-1 mRNA [2] (T2, 20 nM siRNA, Day 2), 29%.
Take Interferon β: in the series on HLA-E [3], the “HLA-E expression in CD4+ T cells” value was “decrease”, the “HLA-E expression in CD8+ T cells” value is listed as “decrease” and the “HLA-E expression in CD19+ cells” value is on record as “increased”. For the same substance, in the series with HLA-G, the “expression of HLA-G in CD4+ T cells” value is reported as “about two-fold”, the “expression of HLA-G in CD8+ T cells” value is “about two-fold” and the “expression of HLA-G in CD19+ cells” value is on record as “increased”. Besides, the “HLA-E expression of immature MoDC cells” value in the series on HLA-E [4] is given as “increasing intense expression”.
Consider “NPRKVTAYL (also: biotin, place not given here; listed as Homo sapiens) [HLA-E leader peptide]”, for which, in the series on HLA-E [5] (leader peptide 1.0 μg/ml versus 0.1 μg/ml), the “increment of HLA-E binding signal” value was ~10 fold and ~15 fold. Moreover, the “HLA-E binding signal (ELISA)” value with HLA-E [5] (leader peptide addition at 0.1 μg/ml) is recorded as “around 0.02 OD”.
In the case of “O′me/G/O′me/ACUUGGGAGGAAGAAAUUU-3′ (siRNA; 2'-O-methyl at sense 5' end, DNA at antisense positions 1 and 8, further chemistry not given here; listed as Homo sapiens) [Derlin siRNA #3]”, the “Derlin-1 mRNA knockdown (KD)” value in the series with Derlin-1 mRNA [1] (5 nM siRNA, Day 1) is 62%; in the series on Derlin-1 mRNA [1] (5 nM siRNA, Day 2) it was 37%; in the series with Derlin-1 mRNA [1] (10 nM siRNA, Day 1), 41%; in the series on Derlin-1 mRNA [1] (10 nM siRNA, Day 2), 33%; with Derlin-1 mRNA [2] (T2, 1 nM siRNA, 6 Hours), 59%; in the series with Derlin-1 mRNA [2] (T2, 2 nM siRNA, 6 Hours), 33%. Besides, the “Derlin-1 mRNA knockdown (KD)” value in the series with Derlin-1 mRNA [2] (T2, 4 nM siRNA, 6 Hours) came out at 28%; with Derlin-1 mRNA [2] (T2, 8 nM siRNA, 6 Hours), 17%.
As for “TMTLPATTL (listed as Homo sapiens) [E33]”, in the series with HLA-E [6], the “surface expression of HLA-E in T2 cells” value is listed as “stronger upregulation”.
On to “VMAPRTLLL (VMAPRTLVL; listed as Homo sapiens) [A 2 leader peptide, reference compound]”, for which, in the series with HLA-E [6], the “surface expression of HLA-E in T2 cells” value is reported as “enhanced surface expression”.
